Results taken from US20130267594A1, “PROLYL HYDROXYLASE INHIBITORS AS RADIATION MITIGATORS AND RADIATION PROTECTORS” (priority 2010, published 2013).

Assays:
MEF cells = assay: Clonogenic cell survival assay after ionizing radiation, MEFs; type: cell-based, mouse; set-up: cell survival after exposure to IR (clonogenic): dose or concentration left out as unconfirmed
Suv39h1/2−/− cells = assay: Clonogenic cell survival assay after ionizing radiation, Suv39h1/Suv39h2 double knockout MEFs; type: cell-based, mouse
[1] = tested on: MEFs expressing shRNA targeting Hif1α; assay: Clonogenic cell survival assay after ionizing radiation, MEFs with Hif1α silenced; type: cell-based, mouse; details: DMOG 1 mM, FIG. 11A
H3K9me3 [2] = assay: Western blot of H3K9me3 in Suv39h1/2−/− MEFs (FIG. 4A); type: cell-based, mouse; details: Suv39h1/2−/− cells, DMOG 100 μM/2hours
Description: Cell lysates and Western blot analysis: Antibodies used: mHif1α (Santa Cruz Biotechnology, CA); hHIF1α (Abcam, CA); H3K9me3 (Millipore, N.Y.); β-actin (Cell Signaling Technology, Mass.); CHD4 and MTA3 (Bethyl Laboratories, Tex.); Suv39h1 (Novus, CA). To prepare nuclear lysates, cells were resuspended in 500 μl buffer A (10 mM Tris, pH8.0/1 mM EDTA, pH8.0/150 mM NaCl/0.5% NP-40/1 mM PMSF/5 μg/ml leupeptin/20 μg/ml aprotinin), incubated on ice for 15 min and centrifuged at 500 g for 5 min at 4° C. Supernatant was removed and the pellet resuspended in buffer B (20 mM Hepes, pH7.9/400 mM NaCl/1 mM EDTA/0.5 mM DTT/1 mM PMSF/5 μg/ml leupeptin/20 μg/ml aprotinin), incubated on ice for 15 min and cleared by centrifugation (21,000 g for 5 min at 4° C.). For western blots, equal amounts of protein (Bradford Protein Assay kit, Bio-Rad Laboratories, CA) were separated by electrophoresis and transferred to nitrocellulose membranes (Bio-Rad Laboratories, CA). Membranes were blocked with Odyssey Blocking Buffer (Li-Cor, NB), incubated with primary antibodies for 3 h, and washed in PBST (PBS and 0.1% Tween-20) followed by goat anti-mouse IR Dye-800CW or goat anti-rabbit IR Dye-680CW secondary antibodies (Li-Cor, NB). Imaging was performed using the Li-Cor Odyssey Near Infra Red System, and analyzed using the Odyssey software system 3.0 package (Li-Cor, NB).

[3] = Toxicity of DMOG alone in mice; type: in vivo, mouse; details: DMOG 100 mg/kg ip
Description: Mice: This study was carried out in strict accordance with the recommendations in the Guide for the Care and Use of Laboratory Animals of the National Institutes of Health. The protocol was reviewed and approved by the Dana-Farber Cancer Institute's Animal Care and Use Committee (Protocol number 06-029). All efforts were made to minimize suffering. Male Balb/c mice were purchased from Taconic (NY, USA) and C57BL/6J mice were purchased from The Jackson Laboratory (ME, USA). For total body irradiation (TBI), mice were irradiated at the dose rate of 110 cGy/min using a ^137Cs source (Gammacell® 40Exactor, Best Theratronics, Ottawa, Canada). DMOG (dissolved in saline) or saline was administered IP before and after TBI. The mice were given normal water that had undergone reverse osmosis and powdered food (Purina Pico Lab Chow) after TBI. The animals were closely inspected after TBI for ill-health and the moribund animals were sacrificed according to the guidelines in our approved ACUC protocol. The Kaplan-Meier survival curves were plotted for saline-treated and DMOG-treated cohorts. The statistical analysis of the Kaplan-Meier survival curves was performed with Graph Pad Prism Version 5 using Mantel Log-rank test.
The preliminary observation on the radiation mitigating effects of DMOG in primary fibroblast cell lines prompted the inventors to initiate testing of DMOG in a murine model. […]

Hif1α [4] = type: cell-based
MTA3 = type: cell-based; details: MCF7 cells; CoCl2 200 μM time course, FIG. 8F; DMOG only stated
H3K9me3 [5] = assay: H3K9me3 immunofluorescent staining in MEFs (FIG. 10A); type: cell-based, mouse; details: DMOG 1 mM 24 hr
Description: In FIG. 10A MEFs were incubated in either solvent (Control: DMSO) or DMOG (1 mM) for 24 hr. H3K9me3 levels were detected by immunofluorescent staining with antibody to H3K9me3 and co-stained with DAPI to locate nuclear DNA. In FIG. 10B HEK293T cells were transiently transfected with vector or KDM4A and allowed to recover for 30 hrs. Cells were either untreated or incubated with DMOG (1 mM) for 24 hrs. H3K9me3 levels were detected by immunofluorescent staining with antibody to H3K9me3. In FIG. 10C MCF-7 cells were incubated in increasing concentrations of DMOG or CoCl2 (200 μM) for 24 hrs. […] In FIG. 10D MCF-7 cells were incubated in DMOG (1 mM) or CoCl2 (200 μM) for the indicated time. […] In FIG. 10E MCF-7 cells expressing either a non-specific shRNA (shRNA^Con) or shRNA targeting Hif1α (shRNA^Hif1α) were incubated with DMOG or CoCl2 (200 μM) for 24 hrs.
Immunofluorescence: Cells (on cover slides) were fixed in phosphate-buffered saline (PBS) containing 2% paraformaldehyde. Cells were permeabilized in 0.2% Triton X-100 in PBS for 5mins, and then blocked in fetal bovine serum for 20 min, Primary antibodies were prepared in 10% fetal bovine serum supplemented with 0.2% saponin. After a 1 h incubation with primary antibody, cells were washed three times with 0.2% Tween-20 and incubated for 1 h in secondary antibody (conjugated to either Texas Red or FITC; Santa Cruz Biotechnology, CA). […]

endogenous KDMs = assay: H3K9me3 immunofluorescent staining in vector-transfected HEK293T cells (FIG. 10B); type: cell-based; details: DMOG 1 mM 24 hrs
Hif1α [6] = type: cell-based, mouse

COC(=O)CNC(=O)C(=O)OC [DMOG, dimethyloxalylglycine]
cell survival after exposure to IR (clonogenic) (MEF cells; MEF cells incubated with DMOG then irradiated, FIG. 3): increased cell survival | radioresistance (clonogenic survival) (MEF cells; MEFs expressing a non-specific shRNA, DMOG 1 mM, FIG. 11A): increased radioresistance | radiosensitivity (clonogenic survival) (MEF cells; MEFs, DMOG 1 mM, 1 hr before IR to 24 hr after, FIG. 7C): significant decrease in radiosensitivity | protection when added after irradiation (radiation mitigation, clonogenic survival) (MEF cells; MEFs, DMOG 48-72 hours post-irradiation, FIG. 5): significant protection | radioresistance (clonogenic survival) (MEF cells; Suv39h1/h2+/+ cells, FIG. 4B): small, but significant increase in radioresistance | protective effect (clonogenic survival) in SuvDKO MEFs versus normal MEFs (Suv39h1/2−/− cells; MEF-SuvDKO, DMOG 1 mM, FIG. 11C): significantly reduced | radioprotective effect (clonogenic survival) (Suv39h1/2−/− cells; Suv39h1/h2−/− cells compared to +/+, FIG. 4B): much larger radioprotective effects | radioresistance (clonogenic survival) when Hif1α was silenced [1]: this effect was lost | levels of H3K9me3 (Western blot) (H3K9me3 [2]): increased the levels of H3K9me3 in Suv39h1/2−/− cells to a level similar to those seen in Suv39h1/1+/+ cells | toxicity of DMOG alone in mice ([3]; no irradiation): does not cause any toxicity | mice surviving at 30 days, DMOG alone ([3]; no irradiation (data not shown)): 100% | accumulation of Hif1α (Hif1α [4]): significant accumulation of Hif1α | accumulation of Hif1α protein in combination with IR, versus agent alone (Hif1α [4]): much larger accumulation of Hif1α protein | MTA3 protein levels (MTA3): increased | H3K9me3 in cells (H3K9me3 [5]): rapidly increased H3K9me3 | H3K9me3 methylation in cells expressing vector (endogenous KDMs): increased H3K9me3 methylation | ability to increase Hif1α levels in SuvDKO MEFs (Hif1α [6]): not altered
